Assay results published in paper PMC9780857 (International Journal of Molecular Sciences, 2022).
Where two headings read alike, the source gives them in different places.

Legend:
[1] = target: T1, hOCT2 (Homo sapiens, UniProt O15244); experiment: Inhibition of hOCT2-mediated 14C-metformin uptake in transfected HEK293 cells; format: cell-based; set-up: expressed in transfected cells; host or cells: HEK293 (stably transfected)
T1 sequence (O15244 1-555): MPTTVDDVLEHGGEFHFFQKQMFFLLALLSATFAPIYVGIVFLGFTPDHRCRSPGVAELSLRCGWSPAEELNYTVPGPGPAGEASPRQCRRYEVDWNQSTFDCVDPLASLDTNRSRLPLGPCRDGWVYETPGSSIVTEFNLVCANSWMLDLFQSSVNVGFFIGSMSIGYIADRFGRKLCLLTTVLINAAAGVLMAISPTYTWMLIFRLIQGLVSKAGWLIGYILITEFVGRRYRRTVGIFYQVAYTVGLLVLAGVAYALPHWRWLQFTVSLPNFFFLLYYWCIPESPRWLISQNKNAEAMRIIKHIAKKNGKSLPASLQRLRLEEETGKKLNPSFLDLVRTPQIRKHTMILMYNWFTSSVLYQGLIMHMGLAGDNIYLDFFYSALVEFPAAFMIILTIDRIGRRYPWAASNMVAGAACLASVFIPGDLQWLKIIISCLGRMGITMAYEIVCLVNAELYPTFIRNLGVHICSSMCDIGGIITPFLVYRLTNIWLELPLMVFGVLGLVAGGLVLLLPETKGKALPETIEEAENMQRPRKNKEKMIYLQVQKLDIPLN
Procedure: (§1) The uptake assays were performed as previously described in 24-well plates. […] After incubation, the uptake was stopped by aspirating the reaction mixture and washing the cells three times with 0.4 mL ice-cold PBS buffer. Cells were then solubilized with 0.6 mL of 1 N NaOH, overnight. The whole content of each well (0.6 mL) was transferred to a scintillation vial (Perkin Elmer). The radio-labelled amount was determined by liquid scintillation counting.
(§2) All inhibition experiments were conducted on at least two separate days in triplicate.
(§3) For screening experiments, cis-inhibition was carried out in duplicate by measuring the uptake of the labeled probe substrate in the absence and presence of 10 µM or 100 µM of the respective pesticide or drug. […] Inhibitory effects in percent were calculated from net-uptake. […]

[2] = target: T2, mOct2 (Mus musculus, UniProt O70577); experiment: Inhibition of mOct2-mediated 14C-metformin uptake in transfected HEK293 cells; format: cell-based; set-up: expressed in transfected cells; host or cells: HEK293 (stably transfected)
T2 sequence (O70577 1-553): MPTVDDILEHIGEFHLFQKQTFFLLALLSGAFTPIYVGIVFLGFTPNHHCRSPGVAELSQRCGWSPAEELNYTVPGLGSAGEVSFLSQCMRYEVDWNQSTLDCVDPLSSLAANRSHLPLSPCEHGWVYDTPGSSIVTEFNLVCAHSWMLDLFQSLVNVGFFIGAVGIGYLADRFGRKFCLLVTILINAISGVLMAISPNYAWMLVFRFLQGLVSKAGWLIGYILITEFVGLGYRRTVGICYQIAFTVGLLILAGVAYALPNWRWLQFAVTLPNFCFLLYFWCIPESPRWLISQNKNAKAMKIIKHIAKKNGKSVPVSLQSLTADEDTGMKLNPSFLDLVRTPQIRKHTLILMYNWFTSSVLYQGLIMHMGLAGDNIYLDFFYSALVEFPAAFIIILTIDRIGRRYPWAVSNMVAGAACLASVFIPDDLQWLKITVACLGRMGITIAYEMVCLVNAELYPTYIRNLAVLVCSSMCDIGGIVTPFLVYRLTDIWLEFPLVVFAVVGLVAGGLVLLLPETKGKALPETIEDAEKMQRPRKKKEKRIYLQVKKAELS
Procedure: as §1, §2, §3

[3] = target: T1, hOCT2; experiment: Inhibition of hOCT2-mediated 3H-MPP uptake in transfected HEK293 cells; format: cell-based; set-up: expressed in transfected cells; host or cells: HEK293 (stably transfected)
Procedure: (§4) With cDNA of hOCT2 (GeneBank: accession number: NM_003058.3) or mOct2 (NM_013667.2), stably overexpressing HEK293 cells were used for the experiments and empty vector-transfected HEK cells were used as control-HEK cells.
(§5) The uptake assays were performed as previously described in 24-well plates. Therefore, culture medium was aspirated, and each well was rinsed three times with 0.5 mL incubation buffer (HBSS supplemented with 20 mM HEPES, pH 7.4) and then incubated in 200 µL dosing solution containing ^3H-MPP or ^14C-metformin and the test compound. After incubation, the uptake was stopped by aspirating the reaction mixture and washing the cells three times with 0.4 mL ice-cold PBS buffer. Cells were then solubilized with 0.6 mL of 1 N NaOH, overnight. The whole content of each well (0.6 mL) was transferred to a scintillation vial (Perkin Elmer). The radio-labelled amount was determined by liquid scintillation counting.
(§6) […]. All inhibition experiments were conducted on at least two separate days in triplicate.
(§7) The Km and Vmax values were obtained using SigmaPlot version 13 by fitting the Michaelis–Menten equation V = Vmax*[S]/(Km + [S]), where V refers to the rate of substrate transport, Vmax refers to the maximum rate of substrate transport, [S] refers to the concentration of substrate, and Km is defined as the concentration of substrate at the half-maximal transport rate.

[4] = target: T2, mOct2; experiment: Inhibition of mOct2-mediated 3H-MPP uptake in transfected HEK293 cells; format: cell-based; set-up: expressed in transfected cells; host or cells: HEK293 (stably transfected)
Procedure: as §4, §5, §6, §7

[5] = substrate: C[n+]1ccc(-c2ccccc2)cc1; experiment: cells, lysate or membranes; details: other: substrate, metformin 2 min, MPP 1 min, 37 °C, pH 7.4
[6] = HEK293, 10 µM test compound; 1 µM [14C]metformin, 2 min, HEK293; negative = stimulation; read-out: Inhibitory Effects (%) hOCT2 10 µM Mean
[7] = HEK293, 100 µM test compound; 1 µM [14C]metformin, 2 min, HEK293; negative = stimulation; read-out: Inhibitory Effects (%) hOCT2 100 µM Mean
[8] = HEK293, 10 µM test compound; 1 µM [14C]metformin, 2 min, HEK293; negative = stimulation; read-out: Inhibitory Effects (%) mOct2 10 µM Mean
[9] = HEK293, 100 µM test compound; 1 µM [14C]metformin, 2 min, HEK293; negative = stimulation; read-out: Inhibitory Effects (%) mOct2 100 µM Mean
[10] = HEK293; read-out: Inhibitory Effects (%) mOct2 10 µM Mean
[11] = HEK293; read-out: Inhibitory Effects (%) mOct2 100 µM Mean
[12] = HEK293, read-out: Inhibitory Effects (%) hOCT2 10 µM Mean
[13] = HEK293, read-out: Inhibitory Effects (%) hOCT2 100 µM Mean
[14] = HEK293, read-out: Inhibitory Effects (%) mOct2 10 µM Mean
[15] = HEK293, read-out: Inhibitory Effects (%) mOct2 100 µM Mean
[16] = HEK293; read-out: Inhibitory Effects (%) hOCT2 10 µM Mean
[17] = HEK293; read-out: Inhibitory Effects (%) hOCT2 100 µM Mean
[18] = 10 µM test compound; 1 µM [14C]metformin, 2 min, HEK293; negative = stimulation
[19] = 100 µM test compound; 1 µM [14C]metformin, 2 min, HEK293; negative = stimulation

CN/C(=N/CCSCc1nc[nH]c1C)NC#N [Cimetidine]
inhibition at 10 µM [1, 6]: -50%
inhibition at 100 µM [1, 7]: -17%
inhibition at 10 µM [2, 8]: -42%
inhibition at 100 µM [2, 9]: 24%

COC(=O)[C@H]1[C@H]2C[C@@H]3c4[nH]c5cc(OC)ccc5c4CCN3C[C@H]2C[C@@H](OC(=O)c2cc(OC)c(OC)c(OC)c2)[C@@H]1OC [Reserpine]
inhibition at 10 µM [1, 6]: -13%
inhibition at 100 µM [1, 7]: -27%
inhibition at 10 µM [2, 10]: -27%
inhibition at 100 µM [2, 11]: -19%

O[C@@H](COc1cccc2ncccc12)CN1CCN([C@@H]2c3ccccc3[C@@H]3[C@H](c4ccccc42)C3(F)F)CC1 [Zosuquidar]
inhibition at 10 µM [1, 6]: -10%
inhibition at 100 µM [1, 7]: -47%
inhibition at 10 µM [2, 8]: -11%
inhibition at 100 µM [2, 9]: -30%

COc1ccc(CCN(C)CCCC(C#N)(c2ccc(OC)c(OC)c2)C(C)C)cc1OC (stereo not drawn) [Verapamil]
inhibition at 10 µM [1, 12]: -8%
inhibition at 100 µM [1, 13]: 44%
inhibition at 10 µM [2, 14]: 23%
inhibition at 100 µM [2, 15]: 73%

O=[N+]([O-])NC1=NCCN1Cc1ccc(Cl)nc1 [Imidacloprid]
inhibition at 10 µM [1, 12]: -74%
inhibition at 100 µM [1, 13]: -43%
inhibition at 10 µM [2, 14]: -52%
inhibition at 100 µM [2, 15]: -29%

C=C[C@H]1C[N@@]2CC[C@H]1C[C@@H]2[C@@H](O)c1ccnc2ccc(OC)cc12 [Quinidine]
inhibition at 10 µM [1, 16]: -50%
inhibition at 100 µM [1, 17]: -31%
inhibition at 10 µM [2, 8]: -38%
inhibition at 100 µM [2, 9]: -28%

Cc1ccc(/N=C/N(C)/C=N/c2ccc(C)cc2C)c(C)c1 [Amitraz]
inhibition at 10 µM [1, 12]: -98%
inhibition at 100 µM [1, 13]: -96%
inhibition at 10 µM [2, 14]: -33%
inhibition at 100 µM [2, 15]: -12%

CCCCc1oc2ccccc2c1C(=O)c1cc(I)c(OCCN(CC)CC)c(I)c1 [Amiodarone]
inhibition at 10 µM [1, 6]: -10%
inhibition at 100 µM [1, 7]: -27%
inhibition at 10 µM [2, 8]: -7%
inhibition at 100 µM [2, 9]: 4%

C=CCOC(Cn1ccnc1)c1ccc(Cl)cc1Cl (stereo not drawn) [Imazalil]
IC50 [1]: 4.7 µM
inhibition at 10 µM [1, 12]: 52%
inhibition at 100 µM [1, 13]: 93%
IC50 [2]: 0.58 µM
inhibition at 10 µM [2, 14]: 83%
inhibition at 100 µM [2, 15]: 97%
Fold higher inhibitory potency to mouse than to human OCT2 (IC50 ratio) ([2]; metformin as substrate): 8 fold
IC50 [3]: 51 ± 16 µM
Fold higher IC50 for hOCT2 than for mOct2 ([3]; MPP as substrate): 2 fold
IC50 [4]: 23 ± 6 µM

CCCOC(=O)NCCCN(C)C [Propamocarb]
Inhibitory Effects (%) hOCT2 10 µM Mean [1, 18]: negligible
inhibition at 10 µM [1, 16]: 1%
inhibition at 100 µM [1, 17]: 55%
Inhibitory Effects (%) mOct2 10 µM Mean [2, 18]: negligible
inhibition at 10 µM [2, 10]: -9%
inhibition at 100 µM [2, 11]: 48%

CCNc1nc(Cl)nc(NC(C)C)n1 [Atrazin]
inhibition at 10 µM [1, 12]: -57%
inhibition at 100 µM [1, 13]: -53%
inhibition at 10 µM [2, 14]: -44%
inhibition at 100 µM [2, 15]: -27%

CCCN(CCOc1c(Cl)cc(Cl)cc1Cl)C(=O)n1ccnc1 [Prochloraz]
inhibition at 10 µM [1, 12]: -43%
inhibition at 100 µM [1, 13]: -17%
inhibition at 10 µM [2, 14]: -13%
inhibition at 100 µM [2, 15]: 10%

O=C(O)CNCP(=O)(O)O [Glyphosat]
inhibition at 10 µM [1, 12]: -24%
inhibition at 100 µM [1, 13]: -48%
inhibition at 10 µM [2, 14]: -13%
inhibition at 100 µM [2, 15]: -31%

CO/C=C(/C(=O)OC)c1ccccc1Oc1cc(Oc2ccccc2C#N)ncn1 [Azoxystrobin]
Inhibitory Effects (%) hOCT2 10 µM Mean [1, 18]: −40%
Inhibitory Effects (%) hOCT2 100 µM Mean [1, 19]: −14%
Inhibitory Effects (%) mOct2 10 µM Mean [2, 18]: −6%
Inhibitory Effects (%) mOct2 100 µM Mean [2, 19]: −17%

B1: hOCT2 (Homo sapiens) (protein)
chain: T1 sequence (O15244 1-555)
Km [5]: 62 µM

B2: mOct2 (Mus musculus) (protein)
chain: T2 sequence (O70577 1-553)
Km [5]: 40 µM
